Experimental data: patent US12357603B2, “Acyl sulfonamides for treating cancer” (Bayer Aktiengesellschaft, priority 2019, dated 2025)

What was measured:
[1] = biological target: Recombinant human His-tagged Kat6a protein (amino acids 194-810) (Homo sapiens (Human), UniProt Q92794); test: Kat6a activity assay (TR-FRET, acetylation of biotinylated Histone-H4-derived peptide); format: biochemical; settings: 60 mins at 22° C., read-out: KAT6A-DPF/HAT domain IC50 [mol/l] (arithmetic mean)
Outline: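 Sf9-expressed human His-Kat6a (aa 194-810) incubated 60 min at 22 °C with compounds (0.01-20 μM) in Tris pH 8 buffer containing 220 nM biotinylated H4 peptide (aa 1-24) and 600 nM acetyl-CoA. Acetyl-K8 detected by TR-FRET (665/620 nm ratio); IC50 by four-parameter fit versus DMSO controls.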

[2] = biological target: Recombinant human GST-tagged Kat6b protein (431-end); test: Kat6b activity assay (TR-FRET, acetylation of biotinylated Histone-H4-derived peptide); format: biochemical; settings: 30 mins at 22° C., read-out: KAT6B activity assay IC50 [mol/l] (arithmetic mean)
Method: Kat6b inhibitory activities of the compounds described in the present invention were quantified using a Fluorescence Resonance Energy Transfer (TR-FRET) assay which measures acetylation of a synthetic, biotinylated Histone-H4-derived peptide by the enzyme.
In this case 50 nl DMSO were used instead of compounds. […] IC50 values were determined by regression analysis based on a 4 parameter equation (minimum, maximum, ICM, Hill; Y=Max+(Min−Max)/(1+(X/ICso) Hill) using the Screener Software (Genedata).

[3] = system: ESR1 transcription (luciferase signal in MVLN cells); test: Repression of ESR1 transcription, luciferase reporter in MVLN cells; format: cell-based; settings: Homo sapiens, MVLN, inhibition of luciferase signal in MVLN cells; arithmetic mean
Outline: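 MVLN cells (constitutive ER, stably carrying a Vitellogenin A2 hormone-responsive element–luciferase reporter) treated in duplicate; luciferase read after 24 h. Cell density checked by Alamar Blue fluorescence (530/590 nm) after 2 h to exclude cell-loss effects.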

[4] = system: ZR-75-1 cells; test: Proliferation assay ZR-75-1 (Alamar Blue, 144 h); format: cell-based; settings: Homo sapiens, ZR-75-1, 144 h, arithmetic mean, read-out: ZR75-1 proliferation assay, EC50 [M] (arithmetic mean)
Outline: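 Cells seeded at 3000/well in RPMI 1640 with 2.5% FBS and treated 24 h later across 2.0×10E-5 to 2.0×10E-9 M (9 dilutions, 0.2% DMSO, triplicate). After 144 h at 37 °C, 5% CO2, viability read by Alamar Blue fluorescence at 590 nm following 2 h reagent incubation.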

[5] = system: MDA-MB-436 cells; test: Proliferation assay MDA-MB-436, negative control cell line (Alamar Blue, 144 h); format: cell-based; settings: Homo sapiens, MDA-MB-436, 144 h, arithmetic mean
Outline: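 MDA-MB-436 cells (3000/well, DMEM/Ham's F12 with 2.5% FBS) treated 24 h after plating with compounds at 2.0×10E-5 to 2.0×10E-9 M (9 dilutions, 0.2% DMSO), triplicates, 144 h at 37 °C, 5% CO2. Viability by Alamar Blue, 2 h, fluorescence at 590 nm.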

Chain of Recombinant human His-tagged Kat6a protein (amino acids 194-810) (Q92794 194-810): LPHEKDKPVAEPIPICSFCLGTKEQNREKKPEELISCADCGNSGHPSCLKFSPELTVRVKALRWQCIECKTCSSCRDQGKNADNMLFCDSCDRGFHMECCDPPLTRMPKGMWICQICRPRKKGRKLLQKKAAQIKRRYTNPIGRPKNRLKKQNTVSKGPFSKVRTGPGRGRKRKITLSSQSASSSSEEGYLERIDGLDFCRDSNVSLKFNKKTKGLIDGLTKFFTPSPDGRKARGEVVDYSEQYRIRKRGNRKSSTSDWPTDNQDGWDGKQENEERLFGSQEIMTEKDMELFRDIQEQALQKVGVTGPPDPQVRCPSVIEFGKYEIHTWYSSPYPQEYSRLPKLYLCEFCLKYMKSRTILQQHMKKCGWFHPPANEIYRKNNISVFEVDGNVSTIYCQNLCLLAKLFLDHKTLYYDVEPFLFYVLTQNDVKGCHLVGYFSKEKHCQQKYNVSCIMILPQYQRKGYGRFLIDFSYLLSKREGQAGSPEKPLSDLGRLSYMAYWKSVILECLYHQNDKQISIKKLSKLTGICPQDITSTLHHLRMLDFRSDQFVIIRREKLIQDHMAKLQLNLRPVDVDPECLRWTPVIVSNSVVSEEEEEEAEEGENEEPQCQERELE

SMILES | IC50 [1] | IC50 [2] | IC50 [3] | EC50 [5] | EC50 [4]
CCOc1ccc(C)cc1S(=O)(=O)NC(=O)c1cc2ccc(N(C)C)cc2o1 [Example 67, 6-(Dimethylamino)-N-(2-ethoxy-5-methylbenzene-1-sulfonyl)-1-benzofuran-2-carboxamide] | 42.9 nM | 118 nM | 40.2 nM | > 20 µM | 4.08e-08 M
CN(C)c1ccc2cc(C(=O)NS(=O)(=O)c3ccccc3OC(C)(C)C)oc2c1 [Example 68, N-(2-tert-butoxybenzene-1-sulfonyl)-6-(dimethylamino)-1-benzofuran-2-carboxamide] | 69.6 nM | 84.5 nM | 51 nM | > 20 µM | 8.44e-08 M
COc1ccc2cccnc2c1S(=O)(=O)NC(=O)c1cc2ccc(N(C)C)cc2o1 [Example 70, 6-(Dimethylamino)-N-(7-methoxyquinoline-8-sulfonyl)-1-benzofuran-2-carboxamide] | 122 nM | 109 nM | 71.3 nM | > 20 µM | 1.63e-07 M
CN(C)c1ccc2cc(C(=O)NS(=O)(=O)c3cccc4cccnc34)oc2c1 [Example 73, 6-(Dimethylamino)-N-(quinoline-8-sulfonyl)-1-benzofuran-2-carboxamide] | 117 nM | 78.5 nM | 99.4 nM | > 20 µM | 2.48e-07 M
CCOc1ccc(I)cc1S(=O)(=O)NC(=O)c1cc2ccc(N(C)C)cc2o1 [Example 78, 6-(Dimethylamino)-N-(2-ethoxy-5-iodobenzene-1-sulfonyl)-1-benzofuran-2-carboxamide] | 32.7 nM | 87 nM | 153 nM | > 20 µM | 2.79e-06 M
CCOc1cccc(-c2ccccc2)c1S(=O)(=O)NC(=O)c1cc2ccc(N(C)C)cc2o1 [Example 80, 6-(Dimethylamino)-N-(3-ethoxy[1,1′-biphenyl]-2-sulfonyl)-1-benzofuran-2-carboxamide] | 73.8 nM | 68.8 nM | 172 nM | > 20 µM | 3.29e-07 M
CCOc1ncccc1S(=O)(=O)NC(=O)c1cc2ccc(N(C)C)cc2o1 [Example 81, 6-(Dimethylamino)-N-(2-ethoxypyridine-3-sulfonyl)-1-benzofuran-2-carboxamide] | 320 nM | 377 nM | 188 nM | > 20 µM | 4.06e-07 M
CN(C)c1ccc2cc(C(=O)NS(=O)(=O)c3ccccc3Oc3ccccc3)oc2c1 [Example 85, 6-(Dimethylamino)-N-(2-phenoxybenzene-1-sulfonyl)-1-benzofuran-2-carboxamide] | 115 nM | 186 nM | 232 nM | > 20 µM | 4e-07 M
COc1ccc(Cn2cccn2)cc1S(=O)(=O)NC(=O)c1cc2ccc(N(C)C)cc2o1 [Example 86, 6-(Dimethylamino)-N-{2-methoxy-5-[(1H-pyrazol-1-yl)methyl]benzene-1-sulfonyl}-1-benzofuran-2-carboxamide] | 64.9 nM | 80 nM | 235 nM | > 20 µM | 1.57e-07 M
Cc1cnc2c(S(=O)(=O)NC(=O)c3cc4ccc(N(C)C)cc4o3)cccc2c1 [Example 87, 6-(Dimethylamino)-N-(3-methylquinoline-8-sulfonyl)-1-benzofuran-2-carboxamide] | 97.3 nM | 104 nM | 249 nM | > 20 µM | 4.18e-07 M
CCOc1ccc([N+](=O)[O-])cc1S(=O)(=O)NC(=O)c1cc2ccc(N(C)C)cc2o1 [Example 88, 6-(Dimethylamino)-N-(2-ethoxy-5-nitrobenzene-1-sulfonyl)-1-benzofuran-2-carboxamide] | 105 nM | 205 nM | 256 nM | 4.65 µM | 3.2e-07 M
CC(C)Oc1cccc(Cl)c1S(=O)(=O)NC(=O)c1cc2ccc(N(C)C)cc2o1 [Example 89, N-{2-chloro-6-[(propan-2-yl)oxy]benzene-1-sulfonyl}-6-(dimethylamino)-1-benzofuran-2-carboxamide] | 131 nM | 172 nM | 279 nM | > 20 µM | 4.45e-07 M
Cc1ccnc2c(S(=O)(=O)NC(=O)c3cc4ccc(N(C)C)cc4o3)cccc12 [Example 91, 6-(Dimethylamino)-N-(4-methylquinoline-8-sulfonyl)-1-benzofuran-2-carboxamide] | 74.2 nM | 92.2 nM | 365 nM | > 20 µM | 7.79e-07 M
CC(C)Cc1ccc2cccc(S(=O)(=O)NC(=O)c3cc4ccc(N(C)C)cc4o3)c2n1 [Example 93, 6-(Dimethylamino)-N-[2-(2-methylpropyl)quinoline-8-sulfonyl]-1-benzofuran-2-carboxamide] | 100 nM | 173 nM | 457 nM | > 20 µM | 8.56e-07 M
CCOc1cccnc1S(=O)(=O)NC(=O)c1cc2ccc(N(C)C)cc2o1 [Example 101, 6-(Dimethylamino)-N-(3-ethoxypyridine-2-sulfonyl)-1-benzofuran-2-carboxamide] | 502 nM | 610 nM | 1440 nM | > 20 µM | 1.4e-06 M

Further lines, with some results ahead:

IC50 [1] | IC50 [2] | IC50 [3] | EC50 [5] | SMILES | EC50 [4]
72.4 nM | 131 nM | 71.9 nM | > 20 µM | CN(C)c1ccc2cc(C(=O)NS(=O)(=O)c3ccccc3OCC3CC3)oc2c1 [Example 71, N-[2-(Cyclopropylmethoxy)benzene-1-sulfonyl]-6-(dimethylamino)-1-benzofuran-2-carboxamide] | 1.92e-07 M
96.7 nM | 190 nM | 76.5 nM | > 20 µM | CN(C)c1ccc2cc(C(=O)NS(=O)(=O)c3ccccc3OCCF)oc2c1 [Example 72, 6-(Dimethylamino)-N-[2-(2-fluoroethoxy)benzene-1-sulfonyl]-1-benzofuran-2-carboxamide] | 1.31e-07 M
128 nM | 228 nM | 117 nM | > 20 µM | CN(C)c1ccc2cc(C(=O)NS(=O)(=O)c3ccccc3OCC(F)(F)F)oc2c1 [Example 74, 6-(Dimethylamino)-N-[2-(2,2,2-trifluoroethoxy)benzene-1-sulfonyl]-1-benzofuran-2-carboxamide] | 1.65e-07 M
163 nM | 246 nM | 130 nM | > 20 µM | CN(C)c1ccc2cc(C(=O)NS(=O)(=O)c3ccccc3OCC(F)F)oc2c1 [Example 75, N-[2-(2,2-Difluoroethoxy)benzene-1-sulfonyl]-6-(dimethylamino)-1-benzofuran-2-carboxamide] | 1.65e-07 M
88.7 nM | 190 nM | 146 nM | > 20 µM | CC(C)COc1ccccc1S(=O)(=O)NC(=O)c1cc2ccc(N(C)C)cc2o1 [Example 76, 6-(Dimethylamino)-N-[2-(2-methylpropoxy)benzene-1-sulfonyl]-1-benzofuran-2-carboxamide] | 1.95e-07 M
272 nM | 546 nM | 152 nM | > 20 µM | CC(C)c1ccccc1S(=O)(=O)NC(=O)c1cc2ccc(N(C)C)cc2o1 [Example 77, 6-(Dimethylamino)-N-[2-(propan-2-yl)benzene-1-sulfonyl]-1-benzofuran-2-carboxamide] | 1.48e-06 M
188 nM | 200 nM | 164 nM | > 20 µM | CN(C)c1ccc2cc(C(=O)NS(=O)(=O)c3ccccc3OC(F)F)oc2c1 [Example 79, N-[2-(Difluoromethoxy)benzene-1-sulfonyl]-6-(dimethylamino)-1-benzofuran-2-carboxamide] | 2.22e-07 M
237 nM | 265 nM | 201 nM | > 20 µM | CN(C)c1ccc2cc(C(=O)NS(=O)(=O)c3ccccc3OC3COC3)oc2c1 [Example 82, 6-(Dimethylamino)-N-{2-[(oxetan-3-yl)oxy]benzene-1-sulfonyl}-1-benzofuran-2-carboxamide] | 2e-07 M
194 nM | 357 nM | 312 nM | > 20 µM | CCCCCOc1ccccc1S(=O)(=O)NC(=O)c1cc2ccc(N(C)C)cc2o1 [Example 90, 6-(Dimethylamino)-N-[2-(pentyloxy)benzene-1-sulfonyl]-1-benzofuran-2-carboxamide] | 8.08e-07 M
